Laboratory results reported in US20220289686A1, “COMPOSITIONS OF NRF2 INHIBITING AGENTS AND METHODS OF USE THEREOF” (Washington University, priority 2021, published 2022).
Where two headings read alike, the source gives them in different places. Each block holds one compound with its values, some of them ahead of it.

Assays:
NRF2 protein [1] = assay: Western blot analysis of NRF2 protein abundance and downstream targets in cell lines; type: cell-based; conditions: for NRF2 protein abundance: 24-48 hours, PYR 10 μM, analogs 1 μM (104 in HEK293T 10 μM), MTX and PEM 0.1 μM, CG 10 μM
Protocol: (§1) Western Blots: KYSE70, HEK293T cells were plated and 24 hours later treated with compounds (see figure legends for details). Either at 24 or 48 hours later, cells were scrapped in RIPA buffer (0.2% deoxycholate, 0.1% SDS, 1% NP40, 150 mM NaCl, 50 mM Tris pH 7.4, 2 mM EDTA) supplemented with protease and phosphatase inhibitors, cleared at 14000×g for 15 minutes at 4° C., and supernatants were quantified by BCA assay (Pierce, 23225). Protein samples (20 μg) were prepared with 1×LDS buffer with 100 mM DTT, ran on NuPAGE 4-12% Bis-tris gels, and transferred onto a […] nitrocellulose membrane (Thermo, 88018). All blots were blocked in 5% milk in TBST for 30 minutes. After incubation of the primary antibody overnight at 4° C. and washed three times with 1×TBST, blots were incubated with LI-COR secondary antibodies for 1-2 hours, washed in 1×TBST thrice, and then imaged via a LI-COR Odyssey instrument (Li-COR, Lincoln, Nebr.).

[2] = test system: NRF2 activity in H1299-NQO1-YFP cells; assay: NRF2 activity reporter IC50 in H1299-NQO1-YFP cells vs NRF2 pathway activators (IncuCyte, YFP/mCherry); type: cell-based; conditions: for suppression of NRF2 activity (in words): IC50 experiments at the doses tested
Protocol: Readings were taken every 2 hours for at least 24 hours. […] Readings were also taken every 2 hours for 96 hours in and IncuCyte S3.
(§2) YFP total intensity (correlating to NRF2 activity) was normalized to NLS-mCherry (cell number) total intensity to give a ratio (YFP/mCherry). Ratios at one time point at least 24 hours post compounds were added were used. These numbers were then plotted in Graphpad Prism to calculate IC50s. […] From three biological replicates, percent confluence was used for proliferation assays to calculate IC50s, calculations performed using Graphpad Prism.

[3] = test system: NRF2 mRNA and NRF2 target gene mRNA; assay: RT-qPCR of NRF2 mRNA and NRF2 downstream targets in KYSE70 cells; type: cell-based; conditions: 24 or 48 hours, PYR 10 μM, analogs 1 μM, MTX and PEM 0.1 μM
Protocol: (§3) qRT-PCR: Total RNA was extracted using PureLink RNA kit following the manufacturers protocol. Primers for qPCR were designed using the National Center for Biotechnology Information's (NCBI) Primer-BLAST platform. For primer sequences, see Table 2. RNA was quantified using a Nanodrop One (Thermo, Waltham, Mass.), and the reverse transcription reaction was performed using 2 μg of RNA with the iSCRIPT Clear kit with DNAse (Biorad, 170-8891). For the qRT-PCR, PowerUP SYBR Green (Thermo, A25741) was used, and data were analyzed on an AB QuantStudio 6 Flex Real Time PCR machine (Applied Biosystems, Foster City, Calif.). ΔCT values were normalized to housekeeping gene RPL13a and then normalized to DMSO for final ΔΔCT value.

AXIN2 and CK1γ1 mRNA = assay: qRT-PCR of AXIN2 and CK1γ1 mRNA (not NRF2 target genes) in KYSE70 cells; type: cell-based; conditions: KYSE70, 48 hours; 1 μM 115, 0.1 μM MTX, 0.1 μM PEM
From the text: Single experiment shown. AXIN2 and CK1γ1 were done in same experiment, but separated for discussion. Error bars are SD and * represents p-value <0.05.
as §3

KYSE70 cells [4] = assay: Proliferation IC50 (percent confluence, IncuCyte) in KYSE70 cells; type: cell-based; conditions: Homo sapiens, read-out: proliferation IC50
Protocol: as §2, with “IncuCyte and IC50 calculations: […] […] Readings were taken every 2 hours for at least 24 hours. […] Readings were also taken every 2 hours for 96 hours in and IncuCyte S3. YFP total” for “YFP total”

DHFR protein = target: T1, DHFR protein (Homo sapiens, UniProt P00374); assay: Western blot for DHFR protein stabilization; type: cell-based; conditions: western blot at the doses used
T1 construct: endogenous in cells; host or cells: KYSE70, HEK293T, H1299, A549, OE21, PC-9
T1 sequence (P00374 1-187): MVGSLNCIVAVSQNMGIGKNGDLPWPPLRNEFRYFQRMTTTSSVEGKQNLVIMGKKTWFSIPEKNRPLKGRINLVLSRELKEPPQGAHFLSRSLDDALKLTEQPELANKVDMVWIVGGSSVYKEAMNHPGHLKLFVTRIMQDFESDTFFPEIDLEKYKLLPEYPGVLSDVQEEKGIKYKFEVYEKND
Protocol: as §1

H1299 cells = assay: Proliferation IC50 (percent confluence, IncuCyte) in H1299 cells; type: cell-based; conditions: Homo sapiens, read-out: proliferation IC50
Protocol: as §2, with “IncuCyte and IC50 calculations: […] […] Readings were taken every 2 hours for at least 24 hours. […] Readings were also taken every 2 hours for 96 hours in and IncuCyte S3. YFP total” for “YFP total”

[5] = test system: mutant KEAP1 activation of NRF2 pathway in H1299-NQO1-YFP cells; assay: H1299-NQO1-YFP reporter cells transfected with mutant KEAP1; type: cell-based; conditions: 10 μM PYR, mutant KEAP1 overexpressed
Protocol: Data is of 3 independent experiments, error bars are SD.
H1299-NQO1-YFP cells were transfected with WT, R320Q, R470C, or V115F FLAG-KEAP1 constructs using Lipofectamine 2000. […] Calculations are detailed below. This was performed in biological triplicate and error bars are SD.

NRF2 protein [6] = assay: Western blot analysis of NRF2 protein abundance and downstream targets in cell lines; type: cell-based; conditions: H1299, 10 μM PYR or 1 μM 115 with 0.5 μM MLN, 24 hours
KYSE70 cells [7] = assay: Metabolomics analysis of KYSE70 cells; type: cell-based; conditions: KYSE70, 48 hours; 10 μM PYR, 1 μM 115, 0.1 μM MTX
Protocol: After 48 hours, 1 ml of media was aliquoted into a clean Eppendorf and kept on ice, and the rest of the media was removed from these dishes. The cells were then washed in water twice and then scrapped in ice cold methanol.

human DHFR (hDHFR) = target: T2, human DHFR (hDHFR) (Homo sapiens, UniProt P00374); assay: Human DHFR enzymatic assay; type: biochemical; conditions: in vitro enzymatic assay, hDHFR 3E-3 Units; read-out: hDHFR3E-3 Units IC50 μM + SEM
T2 construct: purchased
T2 sequence (P00374 1-187): T1 sequence (P00374 1-187)

[8] = Mouse study on analog 115: pharmacokinetic profile and clinical observations; conditions: for concentration at 7 h: female, CD-1, mouse, plasma
Protocol: Two tests were conducted, on for a single oral dose of 10 mg/kg and for an intravenous 2 mg/kg dose in female CD-1 mice (n=3 for each group).
Mouse study with Analog 115: All mouse work was performed by Paraza Pharma, Inc. All pertinent information and methods are listed in FIG. 17.

[9] = read-out: PRL295 5 μM IC50 μM ± SEM, Table 3, activator PRL295 5 μM, H1299-NQO1-YFP cells
[10] = read-out: PRL295 5 μM IC50 AM ± SEM, Table 1, activator PRL295 5 μM, H1299-NQO1-YFP cells
[11] = Table 1 and text, average over activators CDDO, PRL295, SULF, H1299-NQO1-YFP cells, read-out: Avg IC50
[12] = Table 6 NRF2 inhibitors, read-out: Avg IC50

- IC50 ([2]; Table 3, activator CDDO 100 nM, H1299-NQO1-YFP cells, read-out: CDDO 100 nM IC50 μM ± SEM): 0.334 ± 0.03 µM
- IC50 ([2]; Table 3, activator SULF 2 μM, H1299-NQO1-YFP cells, read-out: SULF 2 μM IC50 μM ± SEM): 0.382 ± 0.0374 µM
- IC50 ([2]; Table 3, average over activators, H1299-NQO1-YFP cells, read-out: Avg IC50): 0.276 µM
- IC50 [2, 9]: 0.112 ± 0.0068 µM
SMILES: Nc1nc2[nH]cc(CCc3ccc(C(=O)N[C@@H](CCC(=O)O)C(=O)O)cc3)c2c(=O)[nH]1 [PEM, reference compound]
- NRF2 protein abundance (NRF2 protein [1]; western blot): did not
- suppression of NRF2 activity (in words) [2]: only partial suppression of NRF2 activity
- NRF2 mRNA and NRF2 target gene mRNA [3]: did not
- AXIN2 and CK1γ1 mRNA (AXIN2 and CK1γ1 mRNA): decreased AXIN2 and CK1γ1 mRNA

SMILES: CCc1nc(N)nc(N)c1-c1ccc(Cl)cc1 [PYR, 5-(4-chlorophenyl)-6-ethylpyrimidine-2,4-diamine, reference compound]
- NRF2 protein on co-treatment with Bortezomib (NRF2 protein [1]; BORT 0.04 μM co-treatment, HEK293T, H1299): prevented PYR from decreasing NRF2
- expression of downstream NRF2 target proteins (NRF2 protein [1]; western blot, PYR treatment): decreased expression of downstream NRF2 target proteins
- NRF2 protein abundance (NRF2 protein [1]; western blot): decreases NRF2 protein abundance
- IC50 ([2]; read-out: Avg IC50 μM, Table 1 and text, average over activators CDDO, PRL295, SULF, H1299-NQO1-YFP cells): 1.2 µM
- IC50 ([2]; read-out: Avg IC50 μM, Table 3, average over activators, H1299-NQO1-YFP cells): 1.23 µM
- IC50 ([2]; read-out: Avg IC50 μM, Table 6 NRF2 inhibitors): 1.23 µM
- IC50 ([2]; read-out: CDDO 0.1 μM IC50 μM ± SEM, Table 1, activator CDDO 0.1 μM, H1299-NQO1-YFP cells): 1.25 ± 0.024 µM
- IC50 ([2]; read-out: CDDO 100 nM IC50 μM ± SEM, Table 3, activator CDDO 100 nM, H1299-NQO1-YFP cells): 1.25 ± 0.024 µM
- IC50 [2, 9]: 0.873 ± 0.032 µM
- IC50 [2, 10]: 0.873 ± 0.032 µM
- IC50 ([2]; read-out: SULF 2 μM IC50 μM ± SEM, Table 1, activator SULF 2 μM, H1299-NQO1-YFP cells): 1.59 ± 0.0448 µM
- IC50 ([2]; read-out: SULF 2 μM IC50 μM ± SEM, Table 3, activator SULF 2 μM, H1299-NQO1-YFP cells): 1.59 ± 0.0448 µM
- NRF2 mRNA and NRF2 target gene mRNA [3]: abrogated NRF2 mRNA and NRF2 target gene mRNA decrease
- IC50 (KYSE70 cells [4]; KYSE-70, 96 h): 1240 nM
- DHFR protein stabilization (DHFR protein): DHFR protein was stabilized
- IC50 (H1299 cells; NCI-H1299, 96 h): 3830 nM
- mutant KEAP1 activation of the NRF2 pathway [5]: repressed mutant KEAP1 activation of the pathway
- NRF2 protein levels with MLN induced stabilization (NRF2 protein [6]): Neither PYR nor 115 can decrease NRF2 protein levels

- IC50 [2, 11]: > 20 µM
- IC50 [2, 12]: > 20 µM
- DHFR protein stabilization (DHFR protein): DHFR was not stabilized
SMILES: CCc1nc(N)ncc1-c1ccc(Cl)cc1 [WCDD101, 5-(4-chlorophenyl)-4-ethylpyrimidin-2-amine]
- suppression of NRF2 activity (in words) [2]: did not have any effect on NRF2 activity

- IC50 ([2]; Table 1, activator CDDO 0.1 μM, H1299-NQO1-YFP cells, read-out: CDDO 0.1 μM IC50 μM ± SEM): 0.052 ± 0.0001 µM
- IC50 ([2]; Table 1, activator SULF 2 μM, H1299-NQO1-YFP cells, read-out: SULF 2 μM IC50 μM ± SEM): 0.057 ± 0.003 µM
- IC50 [2, 11]: 0.05 µM
- IC50 [2, 12]: 0.057 µM
- IC50 [2, 10]: 0.06 ± 0.001 µM
- IC50 ([2]; unit inferred, read-out: IC50): 0.05 µM
- IC50 (human DHFR (hDHFR)): 0.144 ± 0.0224 µM
- IC50 (H1299 cells; NCI-H1299, H1299, 96-hour time point, initial experiment): 145 nM
- concentration at 7 h ([8]; iv, 2 mg/kg): 76.4 ng/mL
- concentration at 7 h ([8]; po, 10 mg/kg): ~450 ng/mL
- plasma level at 24 hours post dosing ([8]; oral 10 mg/kg or IV 2 mg/kg, 24 hours post dosing): unquantifiable
SMILES: CCc1nc(N)nc(N)c1-c1cccc(C(F)(F)F)c1 [WCDD115, 6-ethyl-5-(3-(trifluoromethyl)phenyl)pyrimidine-2,4-diamine]
- NRF2 protein abundance (NRF2 protein [1]; western blot): decrease NRF2 protein abundance
- reduction potential in the form of glutathione ratios (KYSE70 cells [7]): decreased
- potency in NRF2 suppression compared to PYR ([2]; relative to PYR): 10 fold
- IC50 (KYSE70 cells [4]; KYSE-70, KYSE70, 96-hour time point, one or two experiments): 31.9 nM
- NRF2 protein levels with MLN induced stabilization (NRF2 protein [6]): Neither PYR nor 115 can decrease NRF2 protein levels
- AXIN2 and CK1γ1 mRNA (AXIN2 and CK1γ1 mRNA): some minimal effect on AXIN2
